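Compound exposure: 48 hours, 5 concentrations, 96-well plates. Abbreviation: GI50, concentration required for 50% inhibition of growth. TGI is the concentration that stops growth completely.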
Columns and labels:
Assay in all cases: DTP human tumour cell line panel, 48 h
HOP-92 NSCLC = system: HOP-92 NSCLC
CAKI-1 renal = system: CAKI-1 renal
HT29 colon = system: HT29 colon
SK-OV-3 ovarian = system: SK-OV-3 ovarian
SN12C renal = system: SN12C renal
RXF 393 renal = system: RXF 393 renal
OVCAR-4 ovarian = system: OVCAR-4 ovarian
RPMI-8226 leukemia = system: RPMI-8226 leukemia
SNB-75 CNS = system: SNB-75 CNS
SW-620 colon = system: SW-620 colon

Structure (SMILES)	TGI (HOP-92 NSCLC) [µM]	TGI (CAKI-1 renal) [µM]	TGI (HT29 colon) [µM]	TGI (SK-OV-3 ovarian) [µM]	TGI (SN12C renal) [µM]	TGI (RXF 393 renal) [µM]	TGI (OVCAR-4 ovarian) [µM]	TGI (RPMI-8226 leukemia) [µM]	TGI (SNB-75 CNS) [µM]	TGI (SW-620 colon) [µM]	GI50 (HOP-92 NSCLC) [µM]	GI50 (CAKI-1 renal) [µM]	GI50 (HT29 colon) [µM]	GI50 (SK-OV-3 ovarian) [µM]	GI50 (SN12C renal) [µM]	GI50 (RXF 393 renal) [µM]	GI50 (OVCAR-4 ovarian) [µM]	GI50 (RPMI-8226 leukemia) [µM]	GI50 (SNB-75 CNS) [µM]	GI50 (SW-620 colon) [µM]
Cc1ccccc1N=Nc1c(-c2ccccc2)nn(C(=O)CC(=O)Nc2cccc(Cl)c2)c1-c1ccccc1	> 100	> 100	23.4	> 31.6	22.9	28.4	> 31.6	21.2	> 31.6	> 39.2										
S=C(CSc1ccccc1)Nc1cccc2ccccc12	> 100	> 100	> 100	> 100	> 100	> 100	> 100	> 100	> 100	> 100										
CCOc1ccc(C(C)=O)cc1NC(=O)c1cccc(-c2nnn(CC)n2)c1	49.4	> 100	> 100	24.8	> 100	11.6	> 100	> 100	12.7	> 100	0.418	0.939	0.325	0.689	5.8	0.61	4.96	1.22	0.209	0.492
C=C(CN1c2ccccc2Sc2ccccc21)c1ccc(C(=O)Nc2ccccc2N)cc1	> 100	> 50.2	> 100	> 100	> 100	> 100	97.3	> 25.4	> 100	> 100	> 47.9	8.83	11.5	11.7	8.07	> 100	12	0.597	15.8	> 92.3
Cc1c(C)c2c(c(C)c1OCC(=O)O)CC[C@@](C)(CCC[C@@H](C)CCC[C@@H](C)CCCC(C)C)O2	137	151	140	148	176	137	136	214	141	218	58.6	76.7	58.3	76.8	66.7	61.6	59.6	56.3	69.9	81.9
O=C(/C=C\n1cnc(-c2cc(C(F)(F)F)cc(C(F)(F)F)c2)n1)N1CC(F)(F)C1	4.37	6.84	11.5	> 25	> 25	1.09	4.13	17.9	6.44	12.9	0.0288	0.288	0.919	1.08	1.19	0.226	0.224	0.408	0.432	0.318
Cn1cc(C2=C(c3ccccc3C(F)(F)F)C(=O)NC2=O)c2ccccc21	> 25	> 25	> 25	> 25	> 25	16.7	> 25	> 25	> 25	> 25	17.2	6.6	6.22	10.2	9.73	5.17	9.64	10.7	> 14	10.2
O=C(NC(=O)c1cn(CCN2CCN(C(=O)NCCCCCCNC(=O)N3CCN(CCn4cc(C(=O)NC(=O)OCc5ccccc5)c(=O)[nH]c4=O)CC3)CC2)c(=O)[nH]c1=O)OCc1ccccc1	> 100	> 100	> 100	> 100	> 100	> 100	> 100	> 100	> 100	> 100										
COc1ccc2[nH]c(C(=O)OCc3ccc4cccc(O)c4n3)cc2c1	1.42	2.49	2.77	23.2	2.54	2.31	3.55	0.874	2.3	3.15	0.209	1.13	0.775	11.1	1.18	1.06	1.83	0.288	1.06	1.2
OC(COc1ccccc1)CN1CCCCC1 (stereo not drawn)	> 100	> 100	> 100	> 100	> 100	> 100	> 100	> 100	> 100	> 100										
O=C(/C(=N/Nc1ccccc1)c1ccc([N+](=O)[O-])cc1)c1ccc([N+](=O)[O-])cc1	> 100	> 100	> 100	> 100	> 100	> 100	> 100	> 100	> 100	> 100										
O=C(Nc1ccc2c(c1)OCCO2)C(=O)c1c[nH]c2ccccc12	11.1	> 100	3.78	8.62	> 83	11.1	> 100	> 100	5.96	> 100	1.34	1.68	0.81	1.5	2.31	2.59	3.88	2.34	1.33	0.475
CCC(C)(O)c1cn(-c2ccc(S(=O)(=O)O)cc2)nn1 (stereo not drawn)	> 100	> 100	> 100	> 100	> 100	> 100	> 100	> 100	> 100	> 100										
COc1cc(-c2nccc3cc4c(cc23)OCO4)cc(OC)c1OC	> 100	10.5	> 100	> 100	> 100	18.3	> 100	> 100	79.7	> 100	11.5	2.52	2.33	4.48	7.64	3.4	> 100	4.98	2.45	2.77
Cn1cncc1-c1c(F)cncc1NC(=O)c1c(N)nn2cc(F)cnc12	69.4	21.7	> 100	8.92	37.6	16.8	14.4	9.4	48.6	> 100	4.43	1.45	3.61	0.743	3.98	0.278	1.27	1.53	6.5	4.12
CC(=O)OC1C(O[C@H]2CC[C@]34O[C@]35CC[C@]3(C)C(C6(C)CC[C@@H](C(C)(C)O)O6)[C@@H](O)CC3(C)[C@@H]5CC(OC3OC(CO)C(O)C(O)C3O)C4C2(C)C)OCC(O)C1O (stereo partly drawn)	> 100	> 100	> 100	> 100	> 100	> 100	> 100	> 71.3	> 100	> 49.3										
NC(CSC(c1ccccc1)(c1ccccc1)c1ccc(F)cc1)C(=O)O (stereo not drawn)	29.3	> 26.8	> 27.8	24.1	> 70.7		> 100	12.7		> 100	0.701	0.79	0.803	0.348	0.564	0.414	9.62	0.279	1.74	0.43
COc1ccc(-c2nsc3c2NC(=O)CC3c2cccc(Cl)c2)cc1 (stereo not drawn)	33.6	70.1	4.91	> 100	> 100	33	> 100	> 100	7.46	> 100	1.09	0.981	0.377	3.31	> 22.8	2.57	7.62	3.6	1.53	0.497
C/C(CC(=O)Nc1ccc(NC(=O)C/C(C)=N\NC(N)=O)cc1)=N/NC(N)=O	> 100	> 100	> 100	> 100	> 100	> 100	> 100	55.5	> 100	> 100										
COc1ccc(-c2nn3ncccc3c2-c2ccnc(Nc3ccc4c(c3)OCCO4)n2)cc1	10.6	> 24.1	> 23.8	> 20.8	> 25	> 25	> 25	> 20.7	> 25	> 25	0.521	2.7	4.29	4.08	6.5	3.27	9.19	4.69	> 13.9	14.4
CCCCCCCCCCOC(=O)c1cc[n+](C)cc1	29.2	30.4	31.1	29.6	30.7	34.3	33	38.2	34.3	34.5										
O=C(N/C(=C/c1cccc([N+](=O)[O-])c1)c1nc2ccc(Cl)cc2[nH]1)c1ccccc1	78.4	71.3	50.9	86.6	87.4	39.9	90.5	69.7	68.3	22.8										

— PubChem BioAssay (NCI)
